Results as given in US11970493B2, “Autotaxin inhibitor compounds” (ILDONG PHARMACEUTICAL CO., LTD., priority 2020, dated 2024).

Legend:
[1] = Mouse PK study (IV and PO); assay type: in vivo; settings: male, C57BL/6, mouse, plasma, male C57BL/6 mice; for AUC(0-inf): IV 2 mg/kg and PO 10 mg/kg study; for bioavailability / Cmax: po, 10 mg/kg; for bioavailability: IV 2 mg/kg and PO 10 mg/kg, read-out: F % (bioavailability); for Cmax: PO group 10 mg/kg
Protocol: This example describes the pharmacokinetic (PK) data obtained for various compounds of the present disclosure, from studies using mice. The following PK parameters were calculated: • Bioavailability (F %) were calculated using the linear/log trapezoidal rule • Peak plasma concentrations (Cmax (ng/mL)) were taken directly from the plasma concentration vs. time profiles for the PO group • Area under the curve e.g., the area under the concentration curve from time 0 to infinity (AUC0-inf(ng*h/mL)). Experimental Procedures
After intravenous (IV) and oral (PO) administration at 2 mg/kg and 10 mg/kg to male C57BL/6 mice, respectively, the blood samples were collected at the designed sampling time points. All blood samples were transferred into pre-chilled commercial polyethylene microcentrifuge tubes containing K2-EDTA as an anticoagulant. Samples were processed for plasma by centrifugation. Plasma samples was transferred into polypropylene tubes pre-chilled on dry ice and then quickly frozen over dry ice and kept at −70±10° C. until LC-MS/MS analysis. Mice plasma samples were analyzed using qualified bioanalytical methods based on protein precipitation followed by LC-MS/MS analysis. Individual plasma concentration data of each compound was subjected to noncompartmental pharmacokinetic analysis using Phoenix WinNonlin™. Nominal doses were used for pharmacokinetic parameters calculation.

hATX/ENPP2 = hATX/ENPP2 (Homo sapiens, UniProt Q13822); assay: hATX/ENPP2 biochemical assay using 16:0-LPC as substrate (Amplex Red/choline oxidase/HRP fluorescence); settings: hENPP2 2.5 nM, LPC (16:0) substrate
How it was run: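 Enzyme preincubated with compounds 15 min at room temperature in 50 mM Tris-HCl pH 8.0, 140 mM NaCl, 5 mM CaCl2, 0.01% Triton X-100. Reaction started with 80 μM LPC (16:0) stock plus Amplex Red/choline oxidase/HRP mix; fluorescence (ex 530/em 590 nm) read kinetically. IC50 from slope between 60 and 70 min.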

[2] = test system: LPA 18:2 level in mouse plasma; assay: In vitro LPA assay, reduction of LPA 18:2 level in mouse plasma (LC-MS/MS); assay type: biochemical; settings: 2 hr at 37° C., LPA 18:2 reduction
Protocol: (§1) Autotaxin (ATX) plays an important role in lysophosphatidic acid (LPA) signaling. An in vitro LPA assay was conducted to determine IC50 values of the test compounds on reduction of LPA 18:2 level in rat or mouse plasma. This example describes the assay data (IC50 value ranges) of exemplary compounds from LPA assays using mouse and rat plasma. Compound GPLG-1690 was assayed as a reference compound.
(§2) The 10 mM DMSO stock solutions of test compounds and 4-fold serial dilutions of the test compounds were prepared at various concentrations. The diluted solutions of the compounds were diluted with 1×PBS (pH 7.5) buffer. 38 μL of rat or mouse plasma samples were mixed with 2 μL of the diluted solutions of the compounds or 2% DMSO solutions in 96-well plate (final 0.1% DMSO). After incubating for 2 hr at 37° C., 120 μL MeOH containing IS (250 ng/mL of LPA 17:0) was added to each well. Mixture was vortexed for 1 min, and then centrifuged for 30 min (4000 rpm, 4° C.). 100 μL supernatant was transferred to a 96-well plate containing 100 μL pure water and the plate was shaken for 10 min. 5 μL supernatant was injected into LC-MS/MS system. No calibration curve will be prepared for LPA 18:2 and all quantifications were performed based on peak area ratios (LPA 18:2/LPA 17:0). For each concentration of compound LPA data were expressed as percentage of reduction (% reduction) using the formula. 100−[((LPA ratio-LPA ratio in control sample after 0 hr incubation)/(LPA ratio in control sample after 2 hr incubation—LPA ratio in control sample after 0 hr incubation))*100]. Data

[3] = test system: LPA 18:2 level in rat plasma; assay: In vitro LPA assay, reduction of LPA 18:2 level in rat plasma (LC-MS/MS); assay type: biochemical; settings: 2 hr at 37° C., LPA 18:2 reduction
Protocol: as §1, §2

Row | SMILES | AUC(0-inf) [1] | bioavailability [1] | Cmax [1] | IC50 (hATX/ENPP2) | IC50 [2] | IC50 [3]
1 | CCc1nc2ccc(-c3ccc(N4CC(C(=O)N5CCC5)C4)nc3)cn2c1N(C)c1nc(-c2ccc(F)cc2)c(C#N)s1 [Compound 124, 2-((6-(6-(3-(azetidine-1-carbonyl)azetidin-1-yl)pyridin-3-yl)-2-ethylimidazo[1,2-a]pyridin-3-yl)(methyl)amino)-4-(4-fluorophenyl)thiazole-5-carbonitrile] | 13100 ng·h/mL | 40% | 3820 ng/mL | 20 to 200 nM | 200 to 800 nM | 200 to 800 nM
2 | CCc1nc2ccc(-c3ccc(N4CCC(C(=O)N5CCC(O)CC5)CC4)nc3)cn2c1N(C)c1nc(-c2ccc(F)cc2)c(C#N)s1 [Compound 119, 2-((2-ethyl-6-(6-(4-(4-hydroxypiperidine-1-carbonyl)piperidin-1-yl)pyridin-3-yl)imidazo[1,2-a]pyridin-3-yl)(methyl)amino)-4-(4-fluorophenyl)thiazole-5-carbonitrile] | 57100 ng·h/mL | 33.1% | 7680 ng/mL | ≤ 20 nM | 200 to 800 nM | 200 to 800 nM
3 | CCc1nc2ccc(-c3ccc(N4CCC(C(=O)N5CCCC5)CC4)nc3)cn2c1N(C)c1nc(-c2ccc(F)cc2)c(C#N)s1 [Compound 113, 2-((2-ethyl-6-(6-(4-(pyrrolidine-1-carbonyl)piperidin-1-yl)pyridin-3-yl)imidazo[1,2-a]pyridin-3-yl)(methyl)amino)-4-(4-fluorophenyl)thiazole-5-carbonitrile] | 40500 ng·h/mL | 44.7% | 6530 ng/mL | ≤ 20 nM | > 800 nM | ≤ 200 nM
4 | CCc1nc2ccc(-c3cnc(N4CCC(C(=O)N5CCC5)CC4)nc3)cn2c1N(C)c1nc(-c2ccc(F)cc2)c(C#N)s1 [Compound 123, 2-((6-(2-(4-(azetidine-1-carbonyl)piperidin-1-yl)pyrimidin-5-yl)-2-ethylimidazo[1,2-a]pyridin-3-yl)(methyl)amino)-4-(4-fluorophenyl)thiazole-5-carbonitrile] | 61000 ng·h/mL | 55.7% | 7750 ng/mL | ≤ 20 nM | 200 to 800 nM | 200 to 800 nM
5 | CCc1nc2ccc(-c3cnc(N4CCC(C(=O)N5CCCC5)CC4)nc3)cn2c1N(C)c1nc(-c2ccc(F)cc2)c(C#N)s1 [Compound 115, 2-((2-ethyl-6-(2-(4-(pyrrolidine-1-carbonyl)piperidin-1-yl)pyrimidin-5-yl)imidazo [1,2-a]pyridin-3-yl)(methyl)amino)-4-(4-fluorophenyl)thiazole-5-carbonitrile] | 37100 ng·h/mL | 48.5% | – | ≤ 20 nM | 200 to 800 nM | ≤ 200 nM
6 | CCc1nc2ccc(-c3cnc(N4CCN(C(=O)C5(CO)CC5)CC4)nc3)cn2c1N(C)c1nc(-c2ccc(F)cc2)c(C#N)s1 [Compound 10, 2-((2-ethyl-6-(2-(4-(1-(hydroxymethyl)cyclopropane-1-carbonyl)piperazin-1-yl)pyrimidin-5-yl)imidazo[1,2-a]pyridin-3-yl)(methyl)amino)-4-(4-fluorophenyl)thiazole-5-carbonitrile] | 26700 ng·h/mL | 28% | 4950 ng/mL | ≤ 20 nM | 200 to 800 nM | ≤ 200 nM
7 | CCc1nc2ccc(-c3cnc(N4CCN(C(=O)N5CC[C@@H](O)C5)CC4)nc3)cn2c1N(C)c1nc(-c2ccc(F)cc2)c(C#N)s1 [Compound 43, (R)-2-((2-ethyl-6-(2-(4-(3-hydroxypyrrolidine-1-carbonyl)piperazin-1-yl)pyrimidin-5-yl)imidazo[1,2-a]pyridin-3-yl)(methyl)amino)-4-(4-fluorophenyl)thiazole-5-carbonitrile] | 31000 ng·h/mL | 39.5% | 5170 ng/mL | ≤ 20 nM | ≤ 200 nM | ≤ 200 nM
8 | CCc1nc2ccc(-c3cnc(N4CCN(C(=O)N5CC[C@H](O)C5)CC4)nc3)cn2c1N(C)c1nc(-c2ccc(F)cc2)c(C#N)s1 [Compound 44, (S)-2-((2-ethyl-6-(2-(4-(3-hydroxypyrrolidine-1-carbonyl)piperazin-1-yl)pyrimidin-5-yl)imidazo[1,2-a]pyridin-3-yl)(methyl)amino)-4-(4-fluorophenvl)thiazole-5-carbonitrile] | 25000 ng·h/mL | 33.4% | 4730 ng/mL | ≤ 20 nM | 200 to 800 nM | 200 to 800 nM
9 | CCc1nc2ccc(-c3ccc(N4CCC(C(=O)N5CC(O)C5)CC4)nc3)cn2c1N(C)c1nc(-c2ccc(F)cc2)c(C#N)s1 [Compound 120, 2-((2-ethyl-6-(6-(4-(3-hydroxyazetidine-1-carbonyl)piperidin-1-yl)pyridin-3-yl)imidazo[1,2-a]pyridin-3-yl)(methyl)amino)-4-(4-fluorophenyl) thiazole-5-carbonitrile] | 50500 ng·h/mL | 40.8% | 8470 ng/mL | ≤ 20 nM | 200 to 800 nM | 200 to 800 nM
10 | CCc1nc2ccc(-c3ccc(N4CCC(C(=O)N5CC[C@@H](O)C5)CC4)nc3)cn2c1N(C)c1nc(-c2ccc(F)cc2)c(C#N)s1 [Compound 114, (R)-2-((2-ethyl-6-(6-(4-(3-hydroxypyrrolidine-1-carbonyl)piperidin-1-yl)pyridin-3-yl)imidazo[1,2-a]pyridin-3-yl)(methyl)amino)-4-(4-fluorophenyl)thiazole-5-carbonitrile] | 38000 ng·h/mL | 28.4% | 7040 ng/mL | ≤ 20 nM | 200 to 800 nM | 200 to 800 nM
11 | CCc1nc2ccc(-c3cnc(N4CC(NC5(CO)CC5)C4)nc3)cn2c1N(C)c1nc(-c2ccc(F)cc2)c(C#N)s1 [Compound 30, 2-((2-ethyl-6-(2-(3-((1-(hydroxymethyl)cyclopropyl)amino)azetidin-1-yl)pyrimidin-5-yl)imidazo[1,2-a]pyridin-3-yl)(methyl)amino)-4-(4-fluorophenyl)thiazole-5-carbonitrile] | 21700 ng·h/mL | 42% | 4310 ng/mL | 20 to 200 nM | 200 to 800 nM | 200 to 800 nM
12 | CCc1nc2ccc(-c3ccc(N4CCC(C(=O)N5CCNCC5)CC4)nc3)cn2c1N(C)c1nc(-c2ccc(F)cc2)c(C#N)s1 [Compound 118, 2-((2-ethyl-6-(6-(4-(piperazine-1-carbonyl)piperidin-1-yl)pyridin-3-yl)imidazo[1,2-a]pyridin-3-yl) (methyl)amino)-4-(4-fluorophenyl)thiazole-5-carbonitrile] | – | – | – | ≤ 20 nM | 200 to 800 nM | ≤ 200 nM
13 | CCc1nc2ccc(-c3ccc(N4CCN(C(=O)N5CC[C@@H](O)C5)CC4)nc3)cn2c1N(C)c1nc(-c2ccc(F)cc2)c(C#N)s1 [Compound 92, (R)-2-((2-ethyl-6-(6-(4-(3-hydroxypyrrolidine-1-carbonyl)piperazin-1-yl)pyridin-3-yl)imidazo[1,2-a]pyridin-3-yl)(methyl)amino)-4-(4-fluorophenyl)thiazole-5-carbonitrile] | 22800 ng·h/mL | 25% | 4260 ng/mL | ≤ 20 nM | ≤ 200 nM | 200 to 800 nM
14 | CCc1nc2ccc(-c3ccc(N4CCN(C(=O)N5CCCC5)CC4)nc3)cn2c1N(C)c1nc(-c2ccc(F)cc2)c(C#N)s1 [Compound 85, 2-((2-ethyl-6-(6-(4-(pyrrolidine-1-carbonyl)piperazin-1-yl)pyridin-3-yl)imidazo[1,2-a]pyridin-3-yl)(methyl)amino)-4-(4-fluorophenyl) thiazole-5-carbonitrile] | – | – | – | 20 to 200 nM | 200 to 800 nM | ≤ 200 nM
